Reference: ChEMBL document CHEMBL3112512, “Microwave induced three-component synthesis and antimycobacterial activity of benzopyrazolo[3,4-b]quinolindiones” (2014)
Converted amounts (≈) assume the structure as drawn.

Tests used:
Format in all cases: functional
[1] = tested on: Mycobacterium tuberculosis; assay: Antimycobacterial activity against isoniazid and rifampicin-resistant Mycobacterium tuberculosis MTB2556 clinical isolate by MTT assay
[2] = tested on: Mycobacterium tuberculosis; assay: Antimycobacterial activity against ethambutol-resistant Mycobacterium tuberculosis H37Rv ATCC 35837 by MTT assay
[3] = tested on: Mycobacterium tuberculosis; assay: Antimycobacterial activity against streptomycin-resistant Mycobacterium tuberculosis H37Rv ATCC 35820 by MTT assay
[4] = tested on: Mycobacterium tuberculosis; assay: Antimycobacterial activity against rifampicin-resistant Mycobacterium tuberculosis H37Rv ATCC 35838 by MTT assay
[5] = tested on: Mycobacterium tuberculosis; assay: Antimycobacterial activity against isoniazid and rifampicin-resistant Mycobacterium tuberculosis MTB411 clinical isolate by MTT assay
[6] = tested on: Mycobacterium tuberculosis; assay: Antimycobacterial activity against isoniazid-resistant Mycobacterium tuberculosis H37Rv ATCC 35822 by MTT assay
[7] = tested on: Mycobacterium tuberculosis; assay: Antimycobacterial activity against isoniazid and rifampicin-resistant Mycobacterium tuberculosis MTB4000 clinical isolate by MTT assay
[8] = tested on: Mycobacterium tuberculosis; assay: Antimycobacterial activity against isoniazid and rifampicin-resistant Mycobacterium tuberculosis UT544 clinical isolate by MTT assay
[9] = tested on: Mycobacterium tuberculosis; assay: Antimycobacterial activity against isoniazid and rifampicin-resistant Mycobacterium tuberculosis MTB985 clinical isolate by MTT assay

Row | Structure (SMILES) | MIC [1] | MIC [2] | MIC [3] | MIC [4] | MIC [5] | MIC [6] | MIC [7] | MIC [8] | MIC [9]
1 | Cc1nn(-c2ccccc2)c2nc3c(c(-c4ccccc4)c12)C(=O)C(=O)c1ccccc1-3 | ≤ 2 µg/mL | ≤ 2 µg/mL | ≤ 2 µg/mL | ≤ 2 µg/mL | 4 µg/mL (≈ 9.63 µM) | ≤ 2 µg/mL | ≤ 2 µg/mL | ≤ 2 µg/mL | ≤ 2 µg/mL
2 | Cc1ccc(-c2c3c(nc4c2c(C)nn4-c2ccccc2)-c2ccccc2C(=O)C3=O)cc1 | ≤ 2 µg/mL | 4 µg/mL (≈ 9.31 µM) | ≤ 2 µg/mL | 4 µg/mL (≈ 9.31 µM) | 4 µg/mL (≈ 9.31 µM) | ≤ 2 µg/mL | ≤ 2 µg/mL | ≤ 2 µg/mL | ≤ 2 µg/mL
3 | COc1cc(-c2c3c(nc4c2c(C)nn4-c2ccccc2)-c2ccccc2C(=O)C3=O)cc(OC)c1OC | > 32 µg/mL | > 32 µg/mL | > 32 µg/mL | > 32 µg/mL | > 32 µg/mL | > 32 µg/mL | > 32 µg/mL | > 32 µg/mL | > 32 µg/mL
4 | Cc1nn(-c2ccccc2)c2nc3c(c(-c4ccc(Cl)cc4)c12)C(=O)C(=O)c1ccccc1-3 | > 32 µg/mL | > 32 µg/mL | > 32 µg/mL | > 32 µg/mL | > 32 µg/mL | > 32 µg/mL | > 32 µg/mL | > 32 µg/mL | > 32 µg/mL
5 | Cc1nn(-c2ccccc2)c2nc3c(c(-c4ccc(F)cc4)c12)C(=O)C(=O)c1ccccc1-3 | ≤ 2 µg/mL | 4 µg/mL (≈ 9.23 µM) | ≤ 2 µg/mL | 4 µg/mL (≈ 9.23 µM) | 4 µg/mL (≈ 9.23 µM) | ≤ 2 µg/mL | ≤ 2 µg/mL | ≤ 2 µg/mL | ≤ 2 µg/mL
6 | O=C1C(=O)c2ccccc2C2=C1C(c1ccccc1)c1c(-c3ccccc3)n[nH]c1N2 (stereo not given) | > 32 µg/mL | > 32 µg/mL | > 32 µg/mL | > 32 µg/mL | > 32 µg/mL | > 32 µg/mL | > 32 µg/mL | > 32 µg/mL | > 32 µg/mL
7 | Cc1ccc(C2C3=C(Nc4[nH]nc(-c5ccccc5)c42)c2ccccc2C(=O)C3=O)cc1 (stereo not given) | > 32 µg/mL | > 32 µg/mL | > 32 µg/mL | > 32 µg/mL | > 32 µg/mL | > 32 µg/mL | > 32 µg/mL | > 32 µg/mL | > 32 µg/mL
8 | COc1ccc(C2C3=C(Nc4[nH]nc(-c5ccccc5)c42)c2ccccc2C(=O)C3=O)cc1 (stereo not given) | > 32 µg/mL | > 32 µg/mL | > 32 µg/mL | > 32 µg/mL | > 32 µg/mL | > 32 µg/mL | > 32 µg/mL | > 32 µg/mL | > 32 µg/mL
9 | Cc1ccc(-c2n[nH]c3c2C(c2ccccc2)C2=C(N3)c3ccccc3C(=O)C2=O)cc1 (stereo not given) | 16 µg/mL (≈ 38.3 µM) | 16 µg/mL (≈ 38.3 µM) | 16 µg/mL (≈ 38.3 µM) | 4 µg/mL (≈ 9.58 µM) | 16 µg/mL (≈ 38.3 µM) | 16 µg/mL (≈ 38.3 µM) | 16 µg/mL (≈ 38.3 µM) | 16 µg/mL (≈ 38.3 µM) | 16 µg/mL (≈ 38.3 µM)
10 | O=C1C(=O)c2ccccc2C2=C1C(c1ccccc1)c1c(-c3ccc(Cl)cc3)n[nH]c1N2 (stereo not given) | > 32 µg/mL | > 32 µg/mL | > 32 µg/mL | > 32 µg/mL | > 32 µg/mL | > 32 µg/mL | > 32 µg/mL | > 32 µg/mL | > 32 µg/mL
11 | O=C1C(=O)c2ccccc2C2=C1C(c1ccccc1)c1c(-c3ccc([N+](=O)[O-])cc3)n[nH]c1N2 (stereo not given) | 8 µg/mL (≈ 17.8 µM) | > 32 µg/mL | 16 µg/mL (≈ 35.7 µM) | 16 µg/mL (≈ 35.7 µM) | 16 µg/mL (≈ 35.7 µM) | 16 µg/mL (≈ 35.7 µM) | 16 µg/mL (≈ 35.7 µM) | 8 µg/mL (≈ 17.8 µM) | 8 µg/mL (≈ 17.8 µM)
12 | Cc1ccc(-c2n[nH]c3nc4c(c(-c5ccc([N+](=O)[O-])cc5)c23)C(=O)C(=O)c2ccccc2-4)cc1 | > 32 µg/mL | > 32 µg/mL | > 32 µg/mL | > 32 µg/mL | > 32 µg/mL | > 32 µg/mL | > 32 µg/mL | > 32 µg/mL | > 32 µg/mL
13 | COc1ccc(-c2c3c(nc4[nH]nc(-c5ccc(Cl)cc5)c24)-c2ccccc2C(=O)C3=O)cc1 | 8 µg/mL (≈ 17.2 µM) | > 32 µg/mL | 16 µg/mL (≈ 34.3 µM) | 16 µg/mL (≈ 34.3 µM) | 16 µg/mL (≈ 34.3 µM) | > 32 µg/mL | 16 µg/mL (≈ 34.3 µM) | 8 µg/mL (≈ 17.2 µM) | 16 µg/mL (≈ 34.3 µM)
14 | NNC(=O)c1ccncc1 [ISONIAZID] | > 0.5 µg/mL | 0.25 µg/mL (≈ 1.82 µM) | 0.25 µg/mL (≈ 1.82 µM) | 0.25 µg/mL (≈ 1.82 µM) | > 0.5 µg/mL | > 0.5 µg/mL | > 0.5 µg/mL | > 0.5 µg/mL | > 0.5 µg/mL
15 | CO[C@H]1/C=C/O[C@@]2(C)Oc3c(C)c(O)c4c(O)c(c(/C=N/N5CCN(C)CC5)c(O)c4c3C2=O)NC(=O)/C(C)=C\C=C\[C@H](C)[C@H](O)[C@@H](C)[C@@H](O)[C@@H](C)[C@H](OC(C)=O)[C@@H]1C [RIFAMPIN] | > 0.5 µg/mL | 0.125 µg/mL (≈ 0.152 µM) | 0.125 µg/mL (≈ 0.152 µM) | > 0.5 µg/mL | > 0.5 µg/mL | 0.125 µg/mL (≈ 0.152 µM) | > 0.5 µg/mL | > 0.5 µg/mL | > 0.5 µg/mL
